Tests used:
[1] = test system: HBV; experiment: Anti HBV activity in vitro, viral DNA from HepG2.2.15 cells quantified by qPCR; type: cell-based; conditions: Hepatitis B virus, qPCR of viral DNA in supernatant, read-out: EC50 against HBV replication
Procedure: Test 1: Test Method of EC50 of Anti HBV
HBV Cell Line and Culture Conditions
HepG2.2.15 (SELLS, PNAS, 1987 and SELLS, JV, 1988) chromosomes have an integrated complete HBV genome, and stably express viral RNA and viral protein. HepG2.2.15 cells can secrete mature HBV particles, HBsAg and HBeAg to medium. HepG2.2.15 cells were cultured in DMEM containing 10% fetal bovine serum, 100 U/mL penicillin, 100 U/mL streptomycin, 1% non essential amino acid, 1 mM sodium pyruvate and 300 µg/mL G418.
Viral particles DNA secreted from HepG2.2.15 cells can be quantified by qPCR, and the effect of the compound on viral replication can be detected.
Test of Anti HBV Activity In Vitro
8000 HepG 2.2.15 cells per well were seeded into a 96-well plate, the plate was cultured at 37° C. and 5% CO2 for 3 days till the cells grew to full wells. Old liquid medium can be removed and replaced with new medium (200 μL) on day 0.
Formulating the compound and treating the cells in the experiment of anti virus: the compound was dissolved in DMSO to a concentration of 30 mM, and then the compound solution was diluted with DMSO to a concentration of […], and then eight dilutions at 4 fold were performed, the highest concentration is 800 μM. The serial diluted compound was added to the above plate at 1 μL per well, the highest final concentration in the experiment is 4 μM (200 fold dilution). TDF (tenofovir dipiroxil fumarate, Selleck, Cat S1400) has a highest concentration of 4 μM as a positive control. 1 μL of DMSO was added in to the positive control well at a final concentration of 0.5%, TDF was added in to the positive control well at a final concentration of 1 μM.
Detection of Viral Genomic DNA by qPCR
Primer: HBV-For-202, […]; HBV-Rev-315, […]. Copies of virus can be calculated using a standard curve plotted by using plasmid containing HBV genome and using SYBR Premix Ex Taq II Takara DRR081S kit and 1 μL cell culture supernatant as a template. EC50 values of the compound on viral replication were calculated by a four parametric nonlinear regression model using Graphpad Prism 5 software to manage concentration—viral copy number.

[2] = Cytotoxicity in HepG2.2.15 cells (CellTiter Glo); type: cell-based; conditions: human, highest concentration 150 μM
Procedure: Test 2: Cytotoxicity and Selectivity Index
Methods of Testing Cytotoxicity and Selectivity Index
The serial diluted compound was added to a 384 wells plate at 50 μL HepG2.2.15 cell per well (3000 cells per well), the highest final concentration in the experiment is 150 μM (200 fold dilution). The plate was cultured at 37° C. in an incubator with C02 for 4 days, and cytotoxicity of the compound was detected using CellTiter Glo agent.
The cytotoxicity of the compound was calculated using the following formulate, cytotoxicity (%)=100−(detection value/mean of DMSO control wells values×100). CC50 values were calculated by a four parametric nonlinear regression model using Graphpad Prism 5 software to manage concentration−cytotoxicity (%). […]

In the case of COC(=O)C1=C(CN2CCN3C(=O)N(c4ccc(CCC(=O)O)cc4)C[C@@H]3C2)NC(c2nccs2)=N[C@H]1c1ccc(Cl)cc1Cl [Example 24, 3-(4-((S)-7-(((R)-6-(2,4-dichlorophenyl)-5-(methoxycarbonyl)-2-(thiazol-2-yl)-3,6-dihydropyrimidin-4-yl)methyl)-3-oxohexahydroimidazo[1,5-a]pyrazin-2 (3H)-yl)phenyl)propionic Acid], the EC50 [1] is reported as 4 nM and the CC50 at 4 days [2] is reported as > 150000 nM.
For COC(=O)C1=C(CN2CCN3C(=O)N(C(CC(=O)O)c4ccccc4)C[C@@H]3C2)NC(c2nccs2)=N[C@H]1c1ccc(F)cc1Cl (stereo partly drawn) [Example 12, 3-((S)-7-(((R)-6-(2-chloro-4-fluorophenyl)-5-(methoxycarbonyl)-2-(thiazol-2-yl)-3,6-dihydropyrimidin-4-yl)methyl)-3-oxohexahydroimidazo[1,5-a]pyrazin-2(3H)-yl)-3-phenylpropionic Acid], the EC50 [1] was 37 nM.
With COC(=O)C1=C(CN2CCN3C(=O)N(c4ccc(/C=C/C(=O)O)cc4)C[C@@H]3C2)NC(c2nccs2)=N[C@H]1c1ccc(F)cc1Cl [Example 47, (E)-3-(4-((S)-7-(((R)-6-(2-chloro-4-fluorophenyl)-5-(methoxycarbonyl)-2-(thiazol-2-yl)-3,6-dihydropyrimidin-4-yl)methyl)-3-oxohexahydroimidazo[1,5-a]pyrazin-2(3H)-yl)phenyl)acrylic Acid] the EC50 [1] was 3 nM and the CC50 at 4 days [2] was > 150000 nM.
With COC(=O)C1=C(CN2CCN3C(=O)N(c4ccc(/C(C)=C/C(=O)O)cc4)C[C@@H]3C2)NC(c2nccs2)=N[C@H]1c1ccc(F)cc1Cl [Example 54, (E)-3-(4-((S)-7-(((R)-6-(2-chloro-4-fluorophenyl)-5-(methoxycarbonyl)-2-(thiazol-2-yl)-3,6-dihydropyrimidin-4-yl)methyl)-3-oxohexahydroimidazo[1,5-a]pyrazin-2(3H)-yl)phenyl)-2-butenoic Acid] the EC50 [1] was 11 nM and the CC50 at 4 days [2] was > 150000 nM.
With COC(=O)C1=C(CN2CCN3C(=O)N(c4ccc(C(C)(C)C(=O)O)cc4)C[C@@H]3C2)NC(c2nccs2)=N[C@H]1c1ccc(F)cc1Cl [Example 15, 2-(4-((S)-7-(((R)-6-(2-chloro-4-fluorophenyl)-5-(methoxycarbonyl)-2-(thiazol-2-yl)-3,6-dihydropyrimidin-4-yl)methyl)-3-oxohexahydroimidazo[1,5-a]pyrazin-2(3H)-yl)phenyl)-2-methylpropionic Acid] the EC50 [1] was 5 nM and the CC50 at 4 days [2] was > 150000 nM.
In the case of COC(=O)C1=C(CN2CCN3C(=O)N(Cc4ccc(CC(=O)O)cc4)C[C@@H]3C2)NC(c2nccs2)=N[C@H]1c1ccc(F)cc1Cl [Example 21, 2-(4-(((S)-7-(((R)-6-(2-chloro-4-fluorophenyl)-5-(methoxycarbonyl)-2-(thiazol-2-yl)-3,6-dihydropyrimidin-4-yl)methyl)-3-oxohexahydroimidazo[1,5-a]pyrazin-2(3H)-yl)methyl)phenyl)acetic Acid], the EC50 [1] is reported as 22 nM and the CC50 at 4 days [2] is reported as 110000 nM.
COC[C@@H]1[C@H]2CN(c3ccc(C(C)(C)C(=O)O)cc3)C(=O)N2CCN1CC1=C(C(=O)OC)[C@H](c2ccc(F)cc2Cl)N=C(c2nccs2)N1 [Example 61B] gave an EC50 [1] of 5 nM.
With COC(=O)C1=C(CN2CCN3C(=O)N(c4ccc(CC(=O)O)cc4)C[C@@H]3C2)NC(c2nccs2)=N[C@H]1c1ccc(Cl)cc1Cl [Example 27, 2-(4-((S)-7-(((R)-6-(2,4-dichlorophenyl)-5-(methoxycarbonyl)-2-(thiazol-2-yl)-3,6-dihydropyrimidin-4-yl)methyl)-3-oxohexahydroimidazo[,5-a]pyrazin-2(3H)-yl)phenyl)acetic Acid] the EC50 [1] was 7 nM and the CC50 at 4 days [2] was > 150000 nM.
In the case of COC(=O)C1=C(CN2CCN3C(=O)N(c4cncc(CCC(=O)O)c4)C[C@@H]3C2)NC(c2nccs2)=N[C@H]1c1ccc(F)cc1Cl [Example 36, 3-(5-((S)-7-(((R)-6-(2-chloro-4-fluorophenyl)-5-(methoxycarbonyl)-2-(thiazol-2-yl)-3,6-dihydropyrimidin-4-yl)methyl)-3-oxohexahydroimidazo[1,5-a]pyrazin-2(3H)-yl)pyridin-3-yl)propionic Acid], the CC50 at 4 days [2] is reported as > 150000 nM.
Molecule COC(=O)C1=C(CN2CCN3C(=O)N([C@H](Cc4ccccc4)C(=O)O)CC3C2)NC(c2nccs2)=N[C@H]1c1ccc(F)cc1Cl (stereo partly drawn) [Example 11, (2R)-2-(7-(((R)-6-(2-chloro-4-fluorophenyl)-5-(methoxycarbonyl)-2-(thiazol-2-yl)-3,6-dihydropyrimidin-4-yl)methyl)-3-oxohexahydroimidazo[1,5-a]pyrazin-2(3H)-yl)-3-phenylpropionic Acid] has an EC50 [1] of 32 nM.
In the case of CCOC(=O)C1=C(CN2CCN3C(=O)N(c4ccc(/C(C)=C/C(=O)O)cc4)C[C@@H]3C2)NC(c2nccs2)=N[C@H]1c1ccc(F)cc1Br [Example 56, (E)-3-(4-((S)-7-(((R)-6-(2-bromo-4-fluorophenyl)-5-(ethoxycarbonyl)-2-(thiazol-2-yl)-3,6-dihydropyrimidin-4-yl)methyl)-3-oxohexahydroimidazo[1,5-a]pyrazin-2(3H)-yl)phenyl)-2-butenoic Acid], the EC50 [1] is reported as 12 nM.
In the case of COC[C@@H]1[C@H]2CN(c3ccc(C(C)(C)C(=O)OC)cc3)C(=O)N2CCN1CC1=C(C(=O)OC)[C@H](c2ccc(F)cc2Cl)N=C(c2nccs2)N1 [Example 60B], the EC50 [1] is reported as 4 nM.
With COC[C@H]1[C@@H]2CN(c3ccc(CCC(=O)O)cc3)C(=O)N2CCN1CC1=C(C(=O)OC)[C@H](c2ccc(F)cc2Cl)N=C(c2nccs2)N1 [Example 51A] the CC50 at 4 days [2] was > 150000 nM.
CCOC(=O)C1=C(CN2CCN3C(=O)N(c4ccc(/C=C(\C)C(=O)O)cc4)C[C@@H]3C2)NC(c2nccs2)=N[C@H]1c1ccc(F)cc1Br [Example 55, (E)-3-(4-((S)-7-(((R)-6-(2-bromo-4-fluorophenyl)-5-(ethoxycarbonyl)-2-(thiazol-2-yl)-3,6-dihydropyrimidin-4-yl)methyl)-3-oxohexahydroimidazo[1,5-a]pyrazin-2(3H)-yl)phenyl)-2-methylacrylic Acid] gave an EC50 [1] of 9 nM.
For COC(=O)C1=C(CN2CCN3C(=O)N(c4ccc(CCC(=O)O)cc4)C[C@H]3[C@@H]2CO)NC(c2nccs2)=N[C@H]1c1ccc(F)cc1Cl [Example 59A], the CC50 at 4 days [2] was > 150000 nM.
Work on COC[C@@H]1[C@H]2CN(c3ccc(CCC(=O)OC)cc3)C(=O)N2CCN1CC1=C(C(=O)OC)[C@H](c2ccc(F)cc2Cl)N=C(c2nccs2)N1 [Example 50B] yielded an EC50 [1] of 8 nM.
Work on CCOC(=O)C1=C(CN2CCN3C(=O)N(c4ccc(CCC(=O)O)cc4)C[C@@H]3[C@H]2COC)NC(c2nccs2)=N[C@H]1c1ccc(F)cc1Br [Example 57, 3-(4-((8S,8aR)-7-(((R)-6-(2-bromo-4-fluorophenyl)-5-(ethoxycarbonyl)-2-(thiazol-2-yl)-3,6-dihydropyrimidin-4-yl)methyl)-8-(methoxymethyl)-3-oxohexahydroimidazo[1,5-a]pyrazin-2(3H)-yl)phenyl)propionic Acid] yielded an EC50 [1] of 12 nM.
COC(=O)CCc1ccc(N2C[C@@H]3[C@@H](CO)N(CC4=C(C(=O)OC)[C@H](c5ccc(F)cc5Cl)N=C(c5nccs5)N4)CCN3C2=O)cc1 [Example 58B] showed an EC50 [1] of 14 nM.
Molecule COCCN1C[C@@H](N2C[C@@H]3CN(CC4=C(C(=O)OC)[C@H](c5ccc(F)cc5Cl)N=C(c5nccs5)N4)CCN3C2=O)C[C@@H]1C(=O)O [Example 7, (2R,4S)-4-((S)-7-(((R)-6-(2-chloro-4-fluorophenyl)-5-(methoxycarbonyl)-2-(thiazol-2-yl)-3,6-dihydropyrimidin-4-yl)methyl)-3-oxohexahydroimidazo[1,5-a]pyrazin-2(3H)-yl)-1-(2-methoxyethyl)pyrrolidine-2-carboxylic Acid] has an EC50 [1] of 56 nM.
For COC(=O)C1=C(CN2CCN3C(=O)N(c4ccc(CCC(=O)O)cn4)C[C@@H]3C2)NC(c2nccs2)=N[C@H]1c1ccc(F)cc1Cl [Example 35, 3-(6-((S)-7-(((R)-6-(2-chloro-4-fluorophenyl)-5-(methoxycarbonyl)-2-(thiazol-2-yl)-3,6-dihydropyrimidin-4-yl)methyl)-3-oxohexahydroimidazo[1,5-a]pyrazin-2(3H)-yl)pyridin-3-yl)propionic Acid], the EC50 [1] was 8 nM.
